Data reported in PubChem BioAssay (NCI).
Values joined by “and” are separate entries in the source; they are usually repeats but may differ in a detail not shown here. Equal entries are not always repeated.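 Compound exposure: 48 hours, 5 concentrations, 96-well plates. Here, GI50 denotes the concentration required for 50% inhibition of growth. TGI: total growth inhibition.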

Key:
Assay in all cases: NCI anticancer screen, dose series, 48 h
[1] = tested on: OVCAR-8 ovarian
[2] = tested on: U251 CNS
[3] = tested on: NCI-H522 lung
[4] = tested on: HOP-92 NSCLC
[5] = tested on: SNB-19 CNS
[6] = tested on: SF-295 CNS
[7] = tested on: SK-MEL-2 melanoma
[8] = tested on: MDA-MB-468 breast
[9] = tested on: HT29 colon
[10] = tested on: UACC-62 melanoma
[11] = tested on: NCI-H460 lung
[12] = tested on: OVCAR-5 ovarian
[13] = tested on: SK-MEL-28 melanoma
[14] = tested on: SK-OV-3 ovarian
[15] = tested on: NCI/ADR-RES ovarian
[16] = tested on: SN12C renal
[17] = tested on: NCI-H226 lung
[18] = tested on: OVCAR-4 ovarian
[19] = tested on: HOP-62 NSCLC
[20] = tested on: M14 melanoma
[21] = tested on: NCI-H23 lung
[22] = tested on: MCF7 breast
[23] = tested on: UACC-257 melanoma
[24] = tested on: MALME-3M melanoma
[25] = tested on: DU-145 prostate
[26] = tested on: RPMI-8226 leukemia
[27] = tested on: KM12 colon
[28] = tested on: SNB-75 CNS
[29] = tested on: HL-60(TB) leukemia
[30] = tested on: HCT-116 colon
[31] = tested on: SR leukemia
[32] = tested on: EKVX NSCLC
[33] = tested on: COLO 205 colon
[34] = tested on: MOLT-4 leukemia
[35] = tested on: OVCAR-3 ovarian
[36] = tested on: HS 578T breast
[37] = tested on: A549 NSCLC
[38] = tested on: K-562 leukemia
[39] = tested on: LOX IMVI melanoma
[40] = tested on: MDA-MB-435
[41] = tested on: SF-268 CNS
[42] = tested on: ACHN renal
[43] = tested on: HCC-2998 colon
[44] = tested on: CCRF-CEM leukemia
[45] = tested on: T-47D breast
[46] = tested on: PC-3 prostate
[47] = tested on: HCT-15 colon
[48] = tested on: MDA-MB-231 breast
[49] = tested on: RXF 393 renal
[50] = tested on: SF-539 CNS
[51] = tested on: BT-549 breast
[52] = tested on: TK-10 renal
[53] = tested on: IGROV1 ovarian
[54] = tested on: 786-0 renal
[55] = tested on: UO-31 renal
[56] = tested on: A498 renal
[57] = tested on: SK-MEL-5 melanoma

For CN1CCN(C(=O)Oc2cc3c(c4ccccc24)[C@H](CCl)CN3C(=O)c2cc3cc(OCCCN4CCC4)ccc3[nH]2)[C@H]2CSSC[C@H]21, the GI50 [1] was 15.3 nM and 12.1 nM, the GI50 [2] was 18 nM and 3.56 nM and the TGI [2] was 2300 nM. For the same molecule, the GI50 [3] was 30.6 nM and 28.3 nM, the TGI [3] was 154 nM and 75.8 nM and the GI50 [4] was 67.1 nM. For the same molecule, the GI50 [5] was 23.2 nM and 17.9 nM, the TGI [5] was 2460 nM and 314 nM and the GI50 [6] was 10.6 nM and 2.14 nM. The TGI [6] was 52 nM and 5.86 nM, the GI50 [7] was 28.5 nM and 31.3 nM and the TGI [7] was 62.6 nM and 53.8 nM. The GI50 [8] was 5.3 nM, the TGI [8] was 19.7 nM and the GI50 [9] was 19.7 nM. For the same molecule, the GI50 [10] was 10.5 nM and 4.24 nM, the TGI [10] was 26.4 nM and 21.3 nM and the GI50 [11] was 1.63 nM. For the same molecule, the TGI [11] was 268 nM, the GI50 [12] was 29 nM and 22.7 nM and the TGI [12] was 360 nM and 86.1 nM. The GI50 [13] was 18.7 nM, the TGI [13] was 40 nM and the GI50 [14] was 23.5 nM and 29.9 nM. The TGI [14] was 59.6 nM and 128 nM, the GI50 [15] was 13.5 nM and the TGI [15] was 53.6 nM. The GI50 [16] was 19.4 nM and 11.6 nM, the TGI [16] was 459 nM and 222 nM and the GI50 [17] was 31.8 nM. The TGI [17] was 1.15 µM, the GI50 [18] was 43.3 nM and 73.5 nM and the TGI [18] was 553 nM and 446 nM. For the same molecule, the GI50 [19] was 9.09 nM and 9.6 nM, the TGI [19] was 33.2 nM and 45.3 nM and the GI50 [20] was 15.9 nM and 14.2 nM. For the same molecule, the TGI [20] was 70 nM and 46.2 nM, the GI50 [21] was 6.68 nM and 4.34 nM and the TGI [21] was 25.1 nM and 19.6 nM. The GI50 [22] was 1.53 nM, the TGI [22] was 1530 nM and the GI50 [23] was 27.3 nM and 34.4 nM. The TGI [23] was 135 nM and 86.5 nM, the GI50 [24] was 18.2 nM and 19.3 nM and the TGI [24] was 39.6 nM and 40.9 nM. The GI50 [25] was 4.29 nM and 5.32 nM, the GI50 [26] was 36 nM and 35.1 nM and the GI50 [27] was 46.2 nM and 90.4 nM. The GI50 [28] was 26 nM, the TGI [28] was 0.137 µM and the GI50 [29] was 49.8 nM and 28.5 nM. For the same molecule, the TGI [29] was 368 nM, the GI50 [30] was 8.63 nM and 45.7 nM and the TGI [30] was greater than 15300 nM. The GI50 [31] was 4.72 nM, the GI50 [32] was 20.4 nM and 27.3 nM and the TGI [32] was 59.6 nM and 70.7 nM. The GI50 [33] was 25.5 nM and 21.7 nM, the TGI [33] was 106 nM and 50.4 nM and the GI50 [34] was 23.5 nM and 14.2 nM. For the same molecule, the TGI [34] was 324 nM, the GI50 [35] was 28.1 nM and 50.5 nM and the TGI [35] was 88.3 nM and 292 nM. The GI50 [36] was 100 nM and 141 nM, the TGI [36] was 591 nM and 810 nM and the GI50 [37] was 4.96 nM. The TGI [37] was greater than 15.3 µM, the GI50 [38] was 24.4 nM and 17.2 nM and the TGI [38] was greater than 15.3 µM. For the same molecule, the GI50 [39] was 3.15 nM, the TGI [39] was 24.8 nM and the GI50 [40] was 20.3 nM and 25.1 nM. For the same molecule, the TGI [40] was 47.9 nM and 55.4 nM, the GI50 [41] was 19.8 nM and 20.1 nM and the TGI [41] was 84.4 nM and 173 nM. For the same molecule, the GI50 [42] was 2.5 nM, the TGI [42] was 8.71 nM and the GI50 [43] was 16 nM and 22 nM. For the same molecule, the TGI [43] was 47.3 nM and 52.7 nM, the GI50 [44] was 42 nM and 18.4 nM and the GI50 [45] was 28.6 nM. For the same molecule, the TGI [45] was 0.598 µM, the GI50 [46] was 18 nM and 34 nM and the TGI [46] was greater than 15.3 µM. For the same molecule, the GI50 [47] was 13.1 nM and 11 nM, the TGI [47] was 40.7 nM and 50.6 nM and the GI50 [48] was 32.1 nM and 37.8 nM. The TGI [48] was 92.9 nM and 83.7 nM, the GI50 [49] was 17.7 nM and 4.25 nM and the TGI [49] was 37.9 nM and 14.5 nM. For the same molecule, the GI50 [50] was 16.8 nM and 22.4 nM, the TGI [50] was 40.6 nM and 55.4 nM and the GI50 [51] was 19.2 nM and 54 nM. The TGI [51] was 74.1 nM and 348 nM.

For CSc1ccc(C(=O)Nc2ccc3nn(/C(C#N)=C/c4ccccn4)nc3c2)cc1, the GI50 [1] was 1480 nM, the TGI [1] was 14.2 µM and the GI50 [2] was 903 nM. It also gave a TGI [2] of 1890 nM, a GI50 [52] of 935 nM and a TGI [52] of 2200 nM. The GI50 [4] was 677 nM, the TGI [4] was 1930 nM and the GI50 [5] was 2140 nM. For the same molecule, the TGI [5] was 8790 nM, the GI50 [6] was 2360 nM and the TGI [6] was 9150 nM. The GI50 [7] was 896 nM, the TGI [7] was 1900 nM and the GI50 [8] was 558 nM. It also gave a TGI [8] of 1360 nM, a GI50 [10] of 819 nM and a TGI [10] of 1720 nM. The GI50 [11] was 934 nM, the TGI [11] was 2110 nM and the GI50 [12] was 990 nM. It also gave a TGI [12] of 2510 nM, a GI50 [13] of 885 nM and a TGI [13] of 1820 nM. For the same molecule, the GI50 [14] was 5180 nM, the TGI [14] was 17500 nM and the GI50 [16] was 1140 nM. For the same molecule, the TGI [16] was 2840 nM, the GI50 [17] was 1640 nM and the TGI [17] was 9.69 µM. For the same molecule, the GI50 [18] was 1740 nM, the TGI [18] was 9640 nM and the GI50 [19] was 1750 nM. The TGI [19] was 6640 nM, the GI50 [20] was 866 nM and the TGI [20] was 1880 nM. For the same molecule, the GI50 [21] was 769 nM, the TGI [21] was 1540 nM and the GI50 [22] was 687 nM. For the same molecule, the TGI [22] was 1650 nM, the GI50 [23] was 1280 nM and the TGI [23] was 4190 nM. It also gave a GI50 [24] of 797 nM, a TGI [24] of 1960 nM and a GI50 [25] of 1250 nM. The TGI [25] was 3.85 µM, the GI50 [26] was 901 nM and the TGI [26] was 2970 nM. It also gave a GI50 [27] of 1060 nM, a TGI [27] of 3.08 µM and a GI50 [28] of 948 nM. For the same molecule, the TGI [28] was 8.25 µM, the GI50 [53] was 902 nM and the TGI [53] was 1980 nM. The GI50 [29] was 544 nM, the TGI [29] was 2190 nM and the GI50 [30] was 822 nM. The TGI [30] was 1640 nM, the GI50 [31] was 327 nM and the TGI [31] was 4.18 µM. It also gave a GI50 [32] of 1260 nM, a TGI [32] of 5950 nM and a GI50 [54] of 776 nM. It also gave a TGI [54] of 1500 nM, a GI50 [33] of 834 nM and a TGI [33] of 1590 nM. The GI50 [34] was 658 nM, the TGI [34] was 2270 nM and the GI50 [55] was 712 nM. For the same molecule, the TGI [55] was 1390 nM, the GI50 [36] was 1700 nM and the TGI [36] was 12600 nM. It also gave a GI50 [37] of 2200 nM, a TGI [37] of 11 µM and a GI50 [38] of 424 nM. The TGI [38] was 3.3 µM, the GI50 [56] was 5.57 µM and the TGI [56] was 11.9 µM. For the same molecule, the GI50 [39] was 664 nM, the TGI [39] was 1340 nM and the GI50 [40] was 759 nM. It also gave a TGI [40] of 2560 nM, a GI50 [41] of 1780 nM and a TGI [41] of 8870 nM. For the same molecule, the GI50 [57] was 1390 nM, the TGI [57] was 4.7 µM and the GI50 [42] was 808 nM. For the same molecule, the TGI [42] was 1600 nM, the GI50 [43] was 854 nM and the TGI [43] was 1580 nM. For the same molecule, the GI50 [44] was 619 nM, the TGI [44] was 50 µM and the GI50 [45] was 1270 nM. It also gave a TGI [45] of 10.9 µM, a GI50 [46] of 1510 nM and a TGI [46] of 6.33 µM. It also gave a GI50 [47] of 511 nM, a TGI [47] of 1380 nM and a GI50 [48] of 842 nM. The TGI [48] was 1740 nM, the GI50 [49] was 699 nM and the TGI [49] was 1360 nM. For the same molecule, the GI50 [50] was 811 nM, the TGI [50] was 1530 nM and the GI50 [51] was 920 nM. The TGI [51] was 1950 nM.
